# Source: patent US20250376480A1, “COMPOUND FOR LOSING WEIGHT AND IMPROVING GUT MICROBIOTA COMPOSITION AND COMPOSITION THEREOF” (SUNWAY BIOTECH CO., LTD., priority 2024, published 2025)
# Marks after values point to notes of the source that are not given here.
# How the values were obtained:
# Assay type in all cases: in vivo, rat
# [1] = tested on: gut microbiota of high-fat diet rats; assay: Gut microbiota fecal analysis (full-length 16S sequencing) of high-fat diet rats
# Description: About 0.3 g of fresh feces was collected into 1.5 mL of eppendorf before fasting for sacrifice, sealed with parafilm, stored at −80° C. for analysis, and sent to BioTools (New Taipei, Taiwan) for analysis.
# Total genomic DNA (QIAamp PowerFecal DNA, Qiagen) was extracted from the samples. The DNA concentration was determined by Qubit 4.0 fluorometer (Thermo Scientific) and adjusted to 1 ng/μL. The full-length 16S gene (V1-V9 region) was amplified by 16S gene-specific primers with barcodes (Forward primer 1): 5′ Phos/GCATC-16-base barcode-Sequence ID Number 11, Reverse primer 1: 5′Phos/GCATC-16-base barcode—Sequence ID Number 12). PCR reactions were performed using KAPA HiFi HotStart ReadyMix (Roche): at 95° C. for 3 min. and 20-27 cycles (Sample Dependency): at 95° C. for 30 sec., at 57° C. for 30 sec., at 72° C. for 60 sec; at 72° C. for 5 min., and finally stored at 4° C. for future use. PCR products were monitored on 1% agarose gels. Samples of approximately 1500 bp bright bands were selected and purified by using AMPure PB Beads for SMRTbell library preparation.
# SMRTbell libraries were prepared based on full-length 16S gene amplifications with barcoded primers used in the Multiplex SMRTbell Library Preparation and Sequencing Program (Pacbio). Sequencing was performed in circular consensus sequencing (CCS) mode on a PacBio Sequel Ile instrument, generating HiFi read with a Phred Scale=30. The DNA to be tested will be sequenced iteratively. By comparing the results of the reverse sequencing, sequencing errors will be corrected, ultimately achieving a high accuracy of >99.9% (QV30).
# Information Analysis (Sequential data processing/denoising and species annotation) The sample data from the downstream data were sorted out according to the Barcode sequence and PCR amplification primer sequences. After the removal of the barcodes and primer sequences, the data were imported into QIIME2 (v2019.7.0; https://qiime2.org/) and all the sequences of the samples were saved into one corresponding object Artifacts. QIIME2 cutadapt was used to remove the amplicon variant primers (forward primer 2: Sequence ID Number 13; reverse primer 2: Sequence ID Number 14), and the sequence with the primers removed will be used as QIIME2 DADA2. Input Reads.
# The denoising analysis began with the filtering of sequences, setting each sequence to be cropped to a specified length (forward reads: 280 bp; reverse reads: 220 bp) and setting the MaxEE (forward reads: 2; reverse reads: 2) parameter as the maximum number of expected error bases allowed for the sequence. This was followed by denoising, the core algorithm of DADA2 utilizing the information of sequence abundance, quality score, and relationships between sequences to correct the […] of sequencing errors and to infer the real sequences. Splicing was performed after denoising each end of the sequence (minimum overlap length 20 bp; overlap region was not allowed to be mismatched). Finally, the spliced sequences are subjected to chimera removal by comparing the sequences with higher abundance in the sample. If a sequence with low abundance is similar to several sequences, it can be recognized as a chimera and removed from the sample. Sequences after denoising analysis were used as representative sequences of Amplicon Sequence Variants (ASVs) and can be obtained from the ASV table for subsequent species annotation. The QIIME2 feature-classifier (v2019.7.0; https://qiime2.org/) was used to select machine learning-based classification methods and to train naïve bayes classifiers for different databases and specific variability regions. The taxonomic annotation of ASVs represented by this classifier yields taxonomic information and the composition of the microbial phyla of each sample at each classification level including kingdom, phylum, class, order, family, genus, and species.
# Welch's t-test was analyzed by STAMP (v2.1.3), and the intergroup species differences were plotted as bar charts. […]
# [2] = tested on: obesity rats induced by high-fat feed; assay: Serum biochemical analysis (TC, TG) of high-fat diet rats
# Description: (§1) The experimental rats were divided into groups, and the obesity rats were induced by high-fat feed as follows (Please refer to Table 1). • i. NOR Group: Normal animal group. • ii. HF Group: High-fat control group including obesity rats induced by high-fat feed. • iii. RL Group: Obesity rats induced by high-fat feed and tube-fed daily with red yeast rice powder, equivalent to 0.5 g of red yeast rice containing 1.5 mg of Monascinol (compound having the structure of Formula (I)) per day consumed by an adult of 60 kg. • iv. RH Group: Obesity rats induced by high-fat feed and tube-fed red yeast rice powder daily, equivalent to 2 g of red yeast rice containing 6 mg of Monascinol (compound having the structure of Formula (I)) per day consumed by an adult of 60 kg. • V. Msol Group: Obesity rats induced by high-fat feed and tube-fed Monascinol (compound having the structure of Formula (I)) powder daily, equivalent to 3 mg of Monascinol (compound having the structure of Formula (I)) powder per day consumed by an adult of 60 kg.
# (§2) (4) Test Substance Feeding Method: The test substance was administered orally by tube feeding, and the concentration of the test substance was adjusted by using reverse osmosis water. 2.0 mL of sterile plastic syringes with stainless steel feeding pins were used to feed each group of test substance daily. Stainless steel feeding needles were soaked in 70% alcohol solution and rinsed with sterile distilled water several times before use. Each group of test animals was administered the test substance once a day for 8 weeks.
# (5) Sacrificial Blood Sampling: At the 8th week, the rats fasted for 12-14 hours before blood sampling. […] Blood samples were centrifuged with the conditions of 4° C. and 3,000×g for 15 min.
# (§3) The animals fasted for 16 hours before sacrifice, and carbon dioxide was used for asphyxiation during sacrifice. After making sure that there was no heartbeat, blood was drawn and organs were collected. […] After blood collection, the needle was slowly withdrawn from the blood vessel and the blood was placed into a 2 mL eppendorf tube and centrifuged at 10,000×g for 10 min. The upper serum layer was separated into eppendorf tubes and stored in a −20° C. freezer for future analysis.
# The test was performed using a biochemical autoanalyzer (Model No.: Beckman-700, purchased from Fullerton, California, USA). The items measured were Total Cholesterol (TC), and Triglyceride (TG).
# [3] = tested on: obesity rats induced by high-fat feed; assay: Liver lipid extraction and determination (TC, TG)
# Description: as §1, §2
# (§4) 0.1 g of liver tissue or fecal powder was weighed and 1 mL of chloroform:methanol (2:1, v/v volume ratio) was added, and homogenized with a tissue homogenizer and centrifuged to obtain the supernatant. The supernatant was then air-dried to remove the solvent, and the sample was dissolved by adding dimethyl sulfoxide (DMSO), and the extracts were kept at −20° C. The TC concentration was analyzed using a commercially available biochemical reagent (Model No. BXC 0261, Fortress), and the TG concentration was analyzed using a commercially available biochemical reagent (Model No. BXC 0271, Fortress), as per the kit instruction manual.
# [4] = tested on: obesity rats induced by high-fat feed; assay: Fecal lipid extraction and determination (TC, TG)
# Description: as §1, §2, §4
# [5] = tested on: obesity rats induced by high-fat feed; assay: Body weight change of obesity rats induced by high-fat feed
# Description: (§5) Forty male rats of 8-week-old Sprague-Dawley (SD) strain were purchased from BioLASCO (Taipei, Taiwan) for the experiment. The growing environment was one with constant indoor temperature (25±1° C.), relative humidity of 60%, and 12 hours of cyclic light (light time from 8:00 to 20:00). The rats were acclimatized for four days before the formal experiment, then reared in 5 groups of 8 rats each for 8 weeks and were fed in an ad libitum feeding manner, and their body weight, food intake and water intake were measured at regular intervals during the experimental period.
# The feeding dosage was calculated according to the method of “Estimating the maximum safe starting dose in initial clinical trials for therapeutics in adult healthy volunteers” published by the U.S. Food and Drug Administration in 2005. Provided that an adult of 60 kg was used as the base, the principle of dosage conversion is 6.2 times of the recommended daily intake of mg/kg bw/day for human as the recommended daily intake of mg/kg bw/day for rat, and the rat group is configured and fed with the dosage as shown in Table 1. The formulae are as follows: Dose intake per kilogram of body weight in rats=Recommended intake in humans÷Body weight 60 kg×6.2, and thus the daily dose intake per kilogram of body weight in rats can be calculated.
# as §1
# (4) Test Substance Feeding Method: The test substance was administered orally by tube feeding, and the concentration of the test substance was adjusted by using reverse osmosis water. 2.0 mL of sterile plastic syringes with stainless steel feeding pins were used to feed each group of test substance daily. […]
# The body weight of rats was measured weekly and the changes in body weight of each group were compared at the end of the experiment.
# [6] = tested on: obesity rats induced by high-fat feed; assay: Liver weight and liver/body weight of high-fat diet rats
# Description: as §5, §1, §2, §3
# [7] = tested on: obesity rats induced by high-fat feed; assay: Body fat mass and body fat rate (perirenal and epididymal fat) of high-fat diet rats
# Description: as §5, §1, §2
# At the time of sacrifice, fatty tissues surrounding the kidneys and the epididymis (perirenal and epididymal fatty tissues) of the experimental animals were removed, and the their weights were measured and recorded. The body fat rate was calculated as follows: Body fat efficiency=(fat weight/body weight)×100%
# [8] = FIGS. 9A-9D, high-fat diet rats, red yeast rice 0.5 and 2 g/day, Monascinol 3 mg/day
# [9] = order level, FIG. 7C, high-fat diet rats, red yeast rice 0.5 and 2 g/day, Monascinol 3 mg/day
# [10] = phylum level, FIG. 7A, high-fat diet rats, red yeast rice 0.5 and 2 g/day, Monascinol 3 mg/day
# [11] = Msol: Monascinol 0.31 mg/kg BW/day (adult 3 mg/day), tube-fed 8 weeks, high-fat diet SD rats, mean±SD
# [12] = p<0.05, 8 weeks, RL 0.5 g/day, RH 2 g/day, Msol 3 mg/day (adult equivalent)
# [13] = 8 weeks, RL 0.5 g/day, RH 2 g/day, Msol 3 mg/day (adult equivalent)
# [14] = vs HF group, 8 weeks, RL 0.5 g/day, RH 2 g/day, Msol 3 mg/day (adult equivalent)
smiles,measurement,setting,value
"C/C=C/C1=CC2=C(CO1)C(=O)C1(C)OC(=O)C(C(O)CCCCC)C1C2 (stereo not drawn) [Msol, Monascinol]",F/B ratio (abundance ratio of Firmicutes to Bacteroidetes),"[1]; FIG. 7A, high-fat diet rats, red yeast rice 0.5 and 2 g/day, Monascinol 3 mg/day",decrease
same,content of B. thetaiotaomicron in the intestines,[1]; [8],most significant
same,intestinal abundance of Dubosiella newyorkensis,[1]; [8],increase
same,bacterial abundance of Bifidobacteriales in the intestine,[1]; [9],increased
same,intestinal abundance of Verrucomicrobiales,[1]; [9],increased
same,intestinal abundance of Eubacteriales,"[1]; order level, FIG. 8, HF group 50.14%, NOR 35.07%, MSol: Monascinol adult 3 mg/day, 8 weeks, high-fat diet rats",43.21%
same,abundance of Bacteroidetes,[1]; [10],increase
same,abundance of Firmicutes,[1]; [10],decrease
same,abundance of A. muciniphila,"[1]; species level, FIG. 7F, high-fat diet-induced obesity rats, red yeast rice 0.5 and 2 g/day, Monascinol 3 mg/day",increased
same,TC in serum,[2]; [11],65.0 ± 10.4^b mg/dL
same,TG in serum,[2]; [11],61.7 ± 10.7^a mg/dL
same,serum TC concentration compared with HF group,[2]; [12],reduced
same,serum TG concentration compared with HF group,"[2]; p<0.05, 8 weeks, red yeast rice at all doses (0.5 and 2 g/day), Msol 3 mg/day (adult equivalent)",significant reduction effect
same,hepatic TC levels compared with HF group,[3]; [13],effective in reducing
same,Liver TC,[3]; [11],5.05 ± 0.54^a mg/g
same,Liver TG,[3]; [11],14.40 ± 1.57^a mg/g
same,liver TG content compared with HF group,[3]; [12],significantly different from the HF group
same,Feces TC,[4]; [11],46.22 ± 4.72^c mg/g
same,Feces TG,[4]; [11],61.27 4.80^cd mg/g
same,accumulation of TG in the body (from fecal TG content),[4]; [14],effective in reducing
same,excretion of TC (feces),[4]; [14],significantly promoted
same,Weight 8 week,[5]; [11],512.1 ± 31.1^a g
same,Weight gain,[5]; [11],220.8 ± 38.8^a g
same,Weight before Sacrifice,"[5]; after fasting, Msol: Monascinol 0.31 mg/kg BW/day (adult 3 mg/day), tube-fed 8 weeks, high-fat diet SD rats, mean±SD",488.5 ± 31.7^a g
same,weight gain compared with HF group,[5]; [12],significantly reduced
same,liver-to-body-weight ratio compared with HF group,[6]; [13],reduction
same,Liver Weight/Body Weight,[6]; [11],3.28 ± 0.37^b %
same,Liver weight,[6]; [11],16.84 2.31^b g
same,liver weight compared with HF group,[6]; [12],significant decrease
same,Fat/body weight,[7]; [11],3.35 ± 0.55^b %
same,body fat mass compared with HF group,[7]; [12],significantly reduced
same,body fat percentage compared with HF group,[7]; [12],significantly reduced
same,Fat weight,"[7]; perirenal and epididymal fat, Msol: Monascinol 0.31 mg/kg BW/day (adult 3 mg/day), tube-fed 8 weeks, high-fat diet SD rats, mean±SD",17.95 3.55^b g
